According to patent US8008329B2 (Dong Wha Pharmaceutical Co., Ltd., priority 2008, dated 2011):
Where “and” joins values, the source holds several entries; their conditions need not be identical. Equal values may be shown once. Marks after values point to notes of the source that are not given here.

What was measured:
[1] = tested on: osteoclast differentiation; experiment: Osteoclast differentiation in co-culture of mouse bone marrow cells and calvarial osteoblasts, TRAP staining (Examples 1-7); type: cell-based; conditions: day 7
[2] = tested on: osteoclast differentiation; experiment: Osteoclast differentiation in co-culture of mouse bone marrow cells and ST2 cells, TRAP staining (Examples 8-9); type: cell-based; conditions: for % number of osteoclast (vs. solvent control group): 0.1 μM each, day 7; for activity at 0.1 µM: Mus musculus, Osteoclast, 168 h, Individual treatment (compounds), day 7, read-out: % number of osteoclast (vs. solvent control group)
In short: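 Bone marrow cells from 6-8-week male ddY mice were co-cultured with ST2 stromal cells under 10^−8 M vitamin D3 and 10^−8 M dexamethasone, with compounds at 0.1 μM final (0.1% DMSO control), refreshed on days 3 and 5. On day 7, TRAP-positive osteoclasts with ≥6 nuclei were counted and expressed as % of solvent control (n=4).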

[3] = Mus musculus, Osteoclast, 168 h, individual treatment of Compound (0.1 μM), read-out: % number of osteoclast (vs. solvent control group)
[4] = combination treatment of alendronic acid (0.2 μM) with compound (0.1 μM)
[5] = combination treatment of clodronic acid (1 μM) with compound (0.1 μM)
[6] = combination treatment of etidronic acid (2 μM) with compound (0.1 μM)
[7] = combination treatment of ibandronic acid (0.1 μM) with compound (0.1 μM)
[8] = combination treatment of pamidronic acid (0.1 μM) with compound (0.1 μM)
[9] = combination treatment of risedronic acid (0.1 μM) with compound (0.1 μM)
[10] = combination treatment of zoledronic acid (0.01 μM) with compound (0.1 μM)
[11] = individual treatment of Compound (0.1 μM)
[12] = Combination treatment (alendronic acid + compounds)
[13] = Combination treatment (risedronic acid + compounds)

CN(CCN1CCOCC1)c1nc(-c2ccc(OCCCCCOc3ccc(C(=N)NO)cc3)cc2)cs1 [Compound 119, N-hydroxy-4-[5-(4-{2-[methyl-(2-morpholinoethyl)amino]-1,3-thiazol-4-yl}phenoxy)pentyloxy]-benzamidine]
activity at 0.1 µM [1, 3]: 66%
% number of osteoclast (vs. solvent control group) [1, 4]: 29% and 29 ± 5.3*^#@ %
% number of osteoclast (vs. solvent control group) [1, 5]: 47% and 47 ± 13.0*^#@ %
% number of osteoclast (vs. solvent control group) [1, 6]: 38% and 38 ± 8.2*^#@ %
% number of osteoclast (vs. solvent control group) [1, 7]: 36 ± 9.8*^#@ %
% number of osteoclast (vs. solvent control group) [1, 8]: 37% and 37 ± 5.0*^#@ %
% number of osteoclast (vs. solvent control group) [1, 9]: 38% and 38 ± 6.8*^#@ %
% number of osteoclast (vs. solvent control group) [1, 10]: 42 ± 8.1*^#@ %
% number of osteoclast (vs. solvent control group) [1, 11]: 66 ± 8.3 %
% number of osteoclast (vs. solvent control group) [2, 12]: 29 ± 4.9^ab %
% number of osteoclast (vs. solvent control group) [2, 13]: 29 ± 8.7^ac %
activity at 0.1 µM [2]: 78 ± 9%

CC(C)c1sc(N2CCOCC2)nc1-c1ccc(OCCCCCOc2ccc(C(=N)NO)cc2)cc1 [Compound 169, N-hydroxy-4-{5-[4-(5-isopropyl-2-morpholino-1,3-thiazol-4-yl)phenoxy]pentyloxy}-benzamidine]
activity at 0.1 µM [1, 3]: 78%
% number of osteoclast (vs. solvent control group) [1, 4]: 44% and 44 ± 7.4*^#@ %
% number of osteoclast (vs. solvent control group) [1, 5]: 59% and 59 ± 14.0*^#@ %
% number of osteoclast (vs. solvent control group) [1, 6]: 49% and 49 ± 9.7*^#@ %
% number of osteoclast (vs. solvent control group) [1, 7]: 54 ± 8.7*^#@ %
% number of osteoclast (vs. solvent control group) [1, 8]: 50% and 50 ± 8.7*^#@ %
% number of osteoclast (vs. solvent control group) [1, 9]: 42% and 42 ± 7.6*^#@ %
% number of osteoclast (vs. solvent control group) [1, 10]: 59 ± 8.2*^#@ %
% number of osteoclast (vs. solvent control group) [1, 11]: 78 ± 8.6 %

Cc1nc(-c2ccc(OCCCCCOc3ccc(C(=N)NO)c(F)c3)cc2)c(C(C)C)s1 [Compound 187, N-hydroxy-2-fluoro-4-{5-[4-(5-isopropyl-2-methyl-1,3-thiazol-4-yl)-phenoxy]-pentyloxy}-benzamidine]
activity at 0.1 µM [1, 3]: 67%
% number of osteoclast (vs. solvent control group) [1, 4]: 32% and 32 ± 8.1*^#@ %
% number of osteoclast (vs. solvent control group) [1, 5]: 60 ± 15.2*^#@ %
% number of osteoclast (vs. solvent control group) [1, 6]: 41% and 41 ± 7.5*^#@ %
% number of osteoclast (vs. solvent control group) [1, 7]: 42% and 42 ± 8.1*^#@ %
% number of osteoclast (vs. solvent control group) [1, 8]: 47% and 47 ± 10.5*^#@ %
% number of osteoclast (vs. solvent control group) [1, 9]: 40% and 40 ± 6.6*^#@ %
% number of osteoclast (vs. solvent control group) [1, 10]: 43% and 43 ± 4.5*^#@ %
% number of osteoclast (vs. solvent control group) [1, 11]: 67% and 67 ± 7.4 %

CN(CCN1CCOCC1)c1nc(-c2ccc(OCCCCCOc3ccc(C(=N)NO)cc3)cc2)c(CN2CCSCC2)s1 [Compound 314, N-hydroxy-4-[5-(4-{2-[methyl-(2-morpholin-4-yl-ethyl)-amino]-5-thiomorpholin-4-ylmethyl-thiazol-4-yl}-phenoxy)-pentyloxy]-benzamidine]
% number of osteoclast (vs. solvent control group) [2, 12]: 15 ± 1.7^ab %
% number of osteoclast (vs. solvent control group) [2, 13]: 9 ± 3.2^ac %
activity at 0.1 µM [2]: 43 ± 7%

CC(C)NCc1sc(N(C)CCN2CCOCC2)nc1-c1ccc(OCCCCCOc2ccc(C(=N)NO)cc2)cc1 [Compound 317, N-hydroxy-4-[5-(4-{5-(isopropylamino-methyl)-2-[methyl-(2-morpholin-4-yl-ethyl)-amino]-thiazol-4-yl}-phenoxy)-pentyloxy]-benzamidine]
% number of osteoclast (vs. solvent control group) [2, 12]: 18 ± 4.6^ab %
% number of osteoclast (vs. solvent control group) [2, 13]: 16 ± 3.2^ac %
activity at 0.1 µM [2]: 45 ± 3.2%

COCCNCc1sc(N(C)CCN2CCOCC2)nc1-c1ccc(OCCCCCOc2ccc(C(=N)NO)cc2)cc1 [Compound 318, N-hydroxy-4-[5-(4-{5-[(2-methoxy-ethylamino) -methyl]-2-[methyl-(2-morpholin-4-yl-ethyl)-amino]-thiazol-4-yl}-phenoxy) -pentyloxy]-benzamidine]
% number of osteoclast (vs. solvent control group) [2, 12]: 27 ± 3.0^ab %
% number of osteoclast (vs. solvent control group) [2, 13]: 12 ± 1.8^ac %
activity at 0.1 µM [2]: 43 ± 3.7%

COCCN(C)c1nc(-c2ccc(OCCCCCOc3ccc(C(=N)NO)cc3)cc2)c(CN2CCOCC2)s1 [Compound 319, N-hydroxy-4-[5-(4-{2-[(2-methoxy-ethyl) -methyl-amino]-5-morpholin-4-ylmethyl-thiazol-4-yl}-phenoxy)-pentyloxy]-benzamidine]
% number of osteoclast (vs. solvent control group) [2, 12]: 25 ± 2.6^ab %
% number of osteoclast (vs. solvent control group) [2, 13]: 11 ± 3.3^ac %
activity at 0.1 µM [2]: 54 ± 5.9%

CN(Cc1cccnc1)c1nc(-c2ccc(OCCCCCOc3ccc(C(=N)NO)cc3)cc2)c(CN2CCOCC2)s1 [Compound 321, N-hydroxy-4-(5-{4-[2-(methyl-pyridin-3-ylmethyl-amino)-5-morpholin-4-ylmethyl-thiazol-4-yl]-phenoxy}-pentyloxy)-benzamidine]
% number of osteoclast (vs. solvent control group) [2, 12]: 19 ± 4.1^ab %
% number of osteoclast (vs. solvent control group) [2, 13]: 18 ± 3.0^ac %
activity at 0.1 µM [2]: 48 ± 7%

Cc1nc(-c2ccc(OCCCCCOc3ccc(C(=N)NO)cc3)cc2)c(N(C)C)s1 [Compound 326, N-hydroxy-4-{5-[4-(5-dimethylamino-2-methyl-thiazol-4-yl)-phenoxy]-pentyloxy}-benzamidine]
% number of osteoclast (vs. solvent control group) [2, 12]: 34 ± 2.7^b %
% number of osteoclast (vs. solvent control group) [2, 13]: 15 ± 6.0^ac %
activity at 0.1 µM [2]: 46 ± 11%

N=C(NO)c1ccc(OCCCCCOc2ccc(-c3nc(-c4ccccc4)sc3N)cc2)cc1 [Compound 330, N-hydroxy-4-{5-[4-(5-amino-2-phenyl-thiazol-4-yl)-phenoxy]-pentyloxy}-benzamidine]
% number of osteoclast (vs. solvent control group) [2, 12]: 23 ± 3.9^ab %
% number of osteoclast (vs. solvent control group) [2, 13]: 12 ± 2.4^ac %
activity at 0.1 µM [2]: 46 ± 4.7%

Cc1nc(-c2ccc(OCCCCCOc3ccc(C(=N)NO)cc3)cc2)c(N)s1 [Compound 331, N-hydroxy-4-{5-[4-(5-amino-2-methyl-thiazol-4-yl)-phenoxy]-pentyloxy}-benzamidine]
% number of osteoclast (vs. solvent control group) [2, 12]: 18 ± 4.6^ab %
% number of osteoclast (vs. solvent control group) [2, 13]: 7 ± 1.2^ac %
activity at 0.1 µM [2]: 43 ± 2.7%

CNc1nc(-c2ccc(OCCCCCOc3ccc(C(=N)NO)cc3)cc2)c(CN2CCOCC2)s1 [Compound 335, N-hydroxy-4-{5-[4-(2-methylamino-5-morpholin-4-ylmethyl-thiazol-4-yl)-phenoxy]-pentyloxy}-benzamidine]
% number of osteoclast (vs. solvent control group) [2, 12]: 41 ± 2.0^ab %
% number of osteoclast (vs. solvent control group) [2, 13]: 23 ± 5.0^ac %
activity at 0.1 µM [2]: 54 ± 0.9%

N=C(NO)c1ccc(OCCCCCOc2ccc(-c3nc(N4CCOCC4)sc3CN3CCOCC3)cc2)cc1 [Compound 336, N-hydroxy-4-{5-[4-(2-morpholin-4-yl-5-morpholin-4-ylmethyl-thiazol-4-yl)-phenoxy]-pentyloxy}-benzamidine]
% number of osteoclast (vs. solvent control group) [2, 12]: 22 ± 3.2^ab %
% number of osteoclast (vs. solvent control group) [2, 13]: 16 ± 3.0^ac %
activity at 0.1 µM [2]: 52 ± 4%

N=C(NO)c1ccc(OCCCCCOc2ccc(-c3nc(N4CCCCC4)sc3N3CCOCC3)cc2)cc1 [Compound 337, N-hydroxy-4-{5-[4-(5-morpholin-4-yl-2-piperidin-1-yl-thiazol-4-yl)-phenoxy]-pentyloxy}-benzamidine]
% number of osteoclast (vs. solvent control group) [2, 12]: 20 ± 3.0^ab %
% number of osteoclast (vs. solvent control group) [2, 13]: 16 ± 3.6^ac %
activity at 0.1 µM [2]: 53 ± 3.7%

O=P(O)(O)C(Cl)(Cl)P(=O)(O)O [clodronic acid, reference compound]
activity at 1 µM ([1]; Mus musculus, Osteoclast, 168 h, individual treatment of clodronic acid (1 μM), read-out: % number of osteoclast (vs. solvent control group)): 88%
% number of osteoclast (vs. solvent control group) ([1]; individual treatment of clodronic acid (1 μM)): 88 ± 9.7 %

CC(O)(P(=O)(O)O)P(=O)(O)O [etidronic acid, reference compound]
activity at 2 µM ([1]; Mus musculus, Osteoclast, 168 h, individual treatment of etidronic acid (2 μM), read-out: % number of osteoclast (vs. solvent control group)): 86%
% number of osteoclast (vs. solvent control group) ([1]; individual treatment of etidronic acid (2 μM)): 86 ± 6.9 %

CCCCCN(C)CCC(O)(P(=O)(O)O)P(=O)(O)O [ibandronic acid, reference compound]
activity at 0.1 µM ([1]; Mus musculus, Osteoclast, 168 h, individual treatment of ibandronic acid (0.1 μM), read-out: % number of osteoclast (vs. solvent control group)): 77%
% number of osteoclast (vs. solvent control group) ([1]; individual treatment of ibandronic acid (0.1 μM)): 77 ± 8.2 %

NCCC(O)(P(=O)(O)O)P(=O)(O)O [pamidronic acid, reference compound]
activity at 0.1 µM ([1]; Mus musculus, Osteoclast, 168 h, individual treatment of pamidronic acid (0.1 μM), read-out: % number of osteoclast (vs. solvent control group)): 82%
% number of osteoclast (vs. solvent control group) ([1]; individual treatment of pamidronic acid (0.1 μM)): 82 ± 6.7 %

O=P(O)(O)C(O)(Cn1ccnc1)P(=O)(O)O [zoledronic acid, reference compound]
activity at 0.01 µM ([1]; Mus musculus, Osteoclast, 168 h, individual treatment of zoledronic acid (0.01 μM), read-out: % number of osteoclast (vs. solvent control group)): 84%
% number of osteoclast (vs. solvent control group) ([1]; individual treatment of zoledronic acid (0.01 μM)): 84 ± 4.1 %
